Reference: ChEMBL document CHEMBL1201862, “PubChem BioAssay data set” (2004)
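These data come from cells grown in 96-well plates and exposed to compound for 48 hours at five concentrations. GI50: concentration for 50% inhibition of growth.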 The source made the active and inactive calls. Rule as the data show it: active = GI50 up to about 1.1 µM and inactive = higher.

Columns and labels:
Assay in all cases: NCI tumour cell line growth inhibition, 48 h
T47D = test system: T47D
CCRF-CEM = test system: CCRF-CEM
Hs-578T = test system: Hs-578T
HL-60 = test system: HL-60
A498 = test system: A498
U-251 = test system: U-251
EKVX = test system: EKVX
OVCAR-3 = test system: OVCAR-3
SF-268 = test system: SF-268
MDA-MB-435 = test system: MDA-MB-435
OVCAR-5 = test system: OVCAR-5
UO-31 = test system: UO-31
MDA-N = test system: MDA-N
SF-295 = test system: SF-295
OVCAR-4 = test system: OVCAR-4
RXF 393 = test system: RXF 393
786-0 = test system: 786-0
SN12C = test system: SN12C
HCT-15 = test system: HCT-15
NCI-H23 = test system: NCI-H23

Measured: GI50

Cc1cc(N(CCC#N)CCC#N)ccc1/C=N/NC(=O)c1ccccc1
5.28 µM: HCT-15
inactive: T47D 24.8 µM | CCRF-CEM 23.1 µM | Hs-578T 15.4 µM | HL-60 4.17 µM | A498 10.1 µM | U-251 22.5 µM | EKVX 48.9 µM | OVCAR-3 15 µM | SF-268 > 48.8 µM | MDA-MB-435 2.42 µM | OVCAR-5 > 80.5 µM | UO-31 > 62.1 µM | MDA-N 2.86 µM | SF-295 12.9 µM | OVCAR-4 65.8 µM | RXF 393 28.4 µM | 786-0 31.6 µM | SN12C 28.5 µM | NCI-H23 25.2 µM

CC(=O)Oc1c2c(c(CC=C(C)C)c3c1C(=O)C1=C[C@@H]4CC5C(C)(C)OC(C/C=C(/C)C(=O)O)(C4=O)[C@@]15O3)OC(C)(CCC=C(C)C)C=C2 (stereo partly specified)
active: T47D 0.12 µM | CCRF-CEM 0.101 µM | Hs-578T 0.337 µM | HL-60 0.0408 µM | A498 0.65 µM | U-251 0.0918 µM | EKVX 0.249 µM | OVCAR-3 0.308 µM | SF-268 0.408 µM | MDA-MB-435 0.161 µM | OVCAR-5 0.361 µM | UO-31 0.173 µM | MDA-N 0.16 µM | SF-295 0.454 µM | OVCAR-4 0.177 µM | RXF 393 0.144 µM | 786-0 0.0989 µM | SN12C 0.181 µM | NCI-H23 0.197 µM
0.244 µM: HCT-15

C/C(CC(O)(C(F)(F)F)C(F)(F)F)=N\N
> 10 µM: HCT-15
inactive: T47D > 10 µM | CCRF-CEM > 10 µM | Hs-578T > 10 µM | HL-60 > 10 µM | A498 > 10 µM | U-251 > 10 µM | EKVX > 10 µM | OVCAR-3 > 10 µM | SF-268 > 10 µM | MDA-MB-435 > 10 µM | OVCAR-5 > 10 µM | MDA-N > 10 µM | SF-295 > 10 µM | OVCAR-4 > 10 µM | RXF 393 > 10 µM | 786-0 > 10 µM | SN12C > 10 µM | NCI-H23 > 10 µM

O=C1/C(=C/Cc2ccco2)N=C(c2ccccc2)N1c1nc2ccc(Sc3ccccc3)cc2[nH]1
30.5 µM: HCT-15
inactive: T47D 32.1 µM | CCRF-CEM 19.3 µM | Hs-578T 18.9 µM | HL-60 21.7 µM | A498 8.36 µM | U-251 19.7 µM | EKVX 25.6 µM | OVCAR-3 21.9 µM | SF-268 18.9 µM | MDA-MB-435 5.52 µM | OVCAR-5 25.9 µM | UO-31 19.2 µM | MDA-N 6.12 µM | SF-295 29.7 µM | OVCAR-4 24.2 µM | RXF 393 15.1 µM | 786-0 18 µM | SN12C 16.1 µM

COC(=O)CC(c1ccccc1)C(C#N)(OP1(=O)OC(c2ccccc2)C(C)N1C)c1ccccc1 (stereo unspecified)
inactive: T47D 68.2 µM | CCRF-CEM 37.8 µM | Hs-578T > 100 µM | HL-60 26.2 µM | A498 39.4 µM | U-251 54.1 µM | EKVX 77.1 µM | OVCAR-3 77.1 µM | SF-268 > 100 µM | MDA-MB-435 43.4 µM | OVCAR-5 > 100 µM | UO-31 11.1 µM | MDA-N 54.5 µM | SF-295 71.6 µM | OVCAR-4 33.3 µM | RXF 393 > 100 µM | 786-0 83.4 µM | SN12C 30.1 µM | NCI-H23 57.3 µM
41.2 µM: HCT-15

C=C1C[C@@H]2O[C@H]3[C@H]4[C@@H](C[C@@H](C)[C@@H](OC(C)=O)[C@H]42)[C@@H](C)CO[C@@]3(C)[C@H](OC(=O)CCCCCCC)C[C@H]1O
inactive: T47D 11.1 µM | CCRF-CEM 14.3 µM | Hs-578T 14.4 µM | HL-60 12.4 µM | A498 16.2 µM | U-251 16.9 µM | EKVX 13.9 µM | OVCAR-3 22.5 µM | SF-268 16.1 µM | MDA-MB-435 18.7 µM | OVCAR-5 17.5 µM | UO-31 15.8 µM | MDA-N 16.7 µM | SF-295 21.7 µM | OVCAR-4 12.8 µM | RXF 393 18.9 µM | 786-0 15.5 µM | SN12C 17.3 µM | NCI-H23 19.8 µM
15.8 µM: HCT-15

CCOc1cc(NC(C)=O)ccc1C(=O)N/N=C/c1ccco1
> 100 µM: HCT-15
inactive: T47D > 100 µM | CCRF-CEM 39.3 µM | Hs-578T > 100 µM | HL-60 27.9 µM | A498 62.8 µM | EKVX > 100 µM | OVCAR-3 > 100 µM | SF-268 > 100 µM | MDA-MB-435 > 100 µM | OVCAR-5 > 100 µM | MDA-N > 100 µM | SF-295 > 100 µM | OVCAR-4 > 100 µM | RXF 393 > 100 µM | 786-0 > 100 µM | SN12C > 100 µM | NCI-H23 > 100 µM
